In ChEMBL document CHEMBL5620394, “Synthesis of new antiproliferative 1,3,4-substituted-pyrrolo[3,2-c]quinoline derivatives, biological and in silico insights” (Eur J Med Chem, 2023):
Activity calls are given as the source filed them. The rule behind the calls is not given here.

Columns and labels:
MCF7 [1] = test: Antiproliferative activity against human MCF7 cells assessed as cell growth at 10 uM incubated for 48 hrs by sulforhodamine B assay relative to control; format: functional; details: read-out: Activity
MCF7 [2] = test: Growth inhibition of human MCF7 cells at 10 uM incubated for 24 hrs by cell counter analysis relative to control; format: functional; details: read-out: GI
MCF7 [3] = test: Growth inhibition of human MCF7 cells at 10 uM incubated for 72 hrs by cell counter analysis relative to control; format: functional; details: read-out: GI
MCF7 [4] = test: Induction of cell cycle arrest in human MCF7 cells assessed as increase in accumulation of cells at sub-G1 phase at 5 uM incubated for 72 hrs by propidium iodide staining based flow cytometry analysis; format: functional
SK-OV-3 = test: Antiproliferative activity against human SK-OV-3 cells assessed as cell growth at 10 uM incubated for 48 hrs by sulforhodamine B assay relative to control; format: functional; details: read-out: Activity
MCF7 [5] = test: Growth inhibition of human MCF7 cells at 25 uM incubated for 72 hrs by cell counter analysis relative to control; format: functional; details: read-out: GI
SR = test: Antiproliferative activity against human SR cells assessed as cell growth at 10 uM incubated for 48 hrs by sulforhodamine B assay relative to control; format: functional; details: read-out: Activity
MCF7 [6] = test: Induction of cell cycle arrest in human MCF7 cells assessed as increase in accumulation of cells at sub-G1 phase at 10 uM incubated for 72 hrs by propidium iodide staining based flow cytometry analysis; format: functional
MDA-MB-231 [7] = test: Growth inhibition of human MDA-MB-231 cells at 10 uM incubated for 72 hrs by cell counter analysis relative to control; format: functional; details: read-out: GI
ACHN = test: Antiproliferative activity against human ACHN cells assessed as cell growth at 10 uM incubated for 48 hrs by sulforhodamine B assay relative to control; format: functional; details: read-out: Activity
K562 = test: Antiproliferative activity against human K562 cells assessed as cell growth at 10 uM incubated for 48 hrs by sulforhodamine B assay relative to control; format: functional; details: read-out: Activity
PC-3 = test: Antiproliferative activity against human PC-3 cells assessed as cell growth at 10 uM incubated for 48 hrs by sulforhodamine B assay relative to control; format: functional; details: read-out: Activity
NCI-H226 = test: Antiproliferative activity against human NCI-H226 cells assessed as cell growth at 10 uM incubated for 48 hrs by sulforhodamine B assay relative to control; format: functional; details: read-out: Activity
MDA-MB-435 = test: Antiproliferative activity against human MDA-MB-435 cells assessed as cell growth at 10 uM incubated for 48 hrs by sulforhodamine B assay relative to control; format: functional; details: read-out: Activity
SF-295 = test: Antiproliferative activity against human SF-295 cells assessed as cell growth at 10 uM incubated for 48 hrs by sulforhodamine B assay relative to control; format: functional; details: read-out: Activity
MCF7 [8] = test: Induction of cell cycle arrest in human MCF7 cells assessed as decrease in accumulation of cells at G0/G1 phase incubated for 72 hrs by propidium iodide staining based flow cytometry analysis; format: functional
MDA-MB-231 [9] = test: Growth inhibition of human MDA-MB-231 cells at 25 uM incubated for 24 hrs by cell counter analysis relative to control; format: functional; details: read-out: GI
CAKI-1 = test: Antiproliferative activity against human CAKI-1 cells assessed as cell growth at 10 uM incubated for 48 hrs by sulforhodamine B assay relative to control; format: functional; details: read-out: Activity
MCF7 [10] = test: Induction of cell cycle arrest in human MCF7 cells assessed as increase in accumulation of cells at S phase at 25 uM incubated for 72 hrs by propidium iodide staining based flow cytometry analysis; format: functional
HOP-62 = test: Antiproliferative activity against human HOP-62 cells assessed as cell growth at 10 uM incubated for 48 hrs by sulforhodamine B assay relative to control; format: functional; details: read-out: Activity
MCF7 [11] = test: Inhibition of colony formation in human MCF7 cells incubated for 72 hrs by crystal violet staining assay; format: functional, cell-based
UACC-257 = test: Antiproliferative activity against human UACC-257 cells assessed as cell growth at 10 uM incubated for 48 hrs by sulforhodamine B assay relative to control; format: functional; details: read-out: Activity
KM12 = test: Antiproliferative activity against human KM12 cells assessed as cell growth at 10 uM incubated for 48 hrs by sulforhodamine B assay relative to control; format: functional; details: read-out: Activity
LOX IMVI = test: Antiproliferative activity against human LOX IMVI cells assessed as cell growth at 10 uM incubated for 48 hrs by sulforhodamine B assay relative to control; format: functional; details: read-out: Activity
MDA-MB-231 [12] = test: Growth inhibition of human MDA-MB-231 cells at 50 uM incubated for 24 hrs by cell counter analysis relative to control; format: functional; details: read-out: GI
[13] = Growth inhibition of human MCF-10A cells at 10 uM incubated for 72 hrs by cell counter analysis relative to control; format: toxicity, cell-based; details: read-out: GI
NCI-H522 = test: Antiproliferative activity against human NCI-H522 cells assessed as cell growth at 10 uM incubated for 48 hrs by sulforhodamine B assay relative to control; format: functional; details: read-out: Activity
MDA-MB-231 [14] = test: Growth inhibition of human MDA-MB-231 cells at 10 uM incubated for 24 hrs by cell counter analysis relative to control; format: functional; details: read-out: GI
MCF7 [15] = test: Growth inhibition of human MCF7 cells at 50 uM incubated for 72 hrs by cell counter analysis relative to control; format: functional; details: read-out: GI
A549 = test: Antiproliferative activity against human A549 cells assessed as cell growth at 10 uM incubated for 48 hrs by sulforhodamine B assay relative to control; format: functional; details: read-out: Activity
[16] = Growth inhibition of human MCF-10A cells at 50 uM incubated for 24 to 48 hrs by cell counter analysis relative to control; format: toxicity, cell-based; details: time 24-48 hrs, read-out: GI
MDA-MB-231 [17] = test: Growth inhibition of human MDA-MB-231 cells at 25 uM incubated for 72 hrs by cell counter analysis relative to control; format: functional; details: read-out: GI
UO-31 = test: Antiproliferative activity against human UO-31 cells assessed as cell growth at 10 uM incubated for 48 hrs by sulforhodamine B assay relative to control; format: functional; details: read-out: Activity
MOLT-4 = test: Antiproliferative activity against human MOLT-4 cells assessed as cell growth at 10 uM incubated for 48 hrs by sulforhodamine B assay relative to control; format: functional; details: read-out: Activity
MCF7 [18] = test: Growth inhibition of human MCF7 cells at 50 uM incubated for 24 hrs by cell counter analysis relative to control; format: functional; details: read-out: GI
MCF7 [19] = test: Induction of cell cycle arrest in human MCF7 cells assessed as increase in accumulation of cells at G2/M phase at 5 uM incubated for 72 hrs by propidium iodide staining based flow cytometry analysis; format: functional
MCF7 [20] = test: Induction of apoptosis in human MCF7 cells assessed as increase in ROS production at 5 to 25 uM by H2DCFDA staining based flow cytometric analysis; format: functional, cell-based; details: dose 5-25 µM
[21] = Growth inhibition of human MCF-10A cells at 25 uM incubated for 24 to 48 hrs by cell counter analysis relative to control; format: toxicity, cell-based; details: time 24-48 hrs, read-out: GI
MDA-MB-231 [22] = test: Growth inhibition of human MDA-MB-231 cells at 50 uM incubated for 72 hrs by cell counter analysis relative to control; format: functional; details: read-out: GI
MDA-MB-231 [23] = test: Antiproliferative activity against human MDA-MB-231 cells assessed as cell growth at 10 uM incubated for 48 hrs by sulforhodamine B assay relative to control; format: functional; details: read-out: Activity
SNB-75 = test: Antiproliferative activity against human SNB-75 cells assessed as cell growth at 10 uM incubated for 48 hrs by sulforhodamine B assay relative to control; format: functional; details: read-out: Activity
HCT-15 = test: Antiproliferative activity against human HCT-15 cells assessed as cell growth at 10 uM incubated for 48 hrs by sulforhodamine B assay relative to control; format: functional; details: read-out: Activity
HCT-116 = test: Antiproliferative activity against human HCT-116 cells assessed as cell growth at 10 uM incubated for 48 hrs by sulforhodamine B assay relative to control; format: functional; details: read-out: Activity
MCF7 [24] = test: Induction of cell cycle arrest in human MCF7 cells assessed as increase in accumulation of cells at G2/M phase at 10 to 25 uM incubated for 72 hrs by propidium iodide staining based flow cytometry analysis; format: functional; details: dose 10-25 µM
MDA-MB-468 = test: Antiproliferative activity against human MDA-MB-468 cells assessed as cell growth at 10 uM incubated for 48 hrs by sulforhodamine B assay relative to control; format: functional; details: read-out: Activity
MCF7 [25] = test: Growth inhibition of human MCF7 cells at 25 uM incubated for 24 hrs by cell counter analysis relative to control; format: functional; details: read-out: GI
[26] = Growth inhibition of human MCF-10A cells at 10 uM incubated for 24 hrs by cell counter analysis relative to control; format: toxicity, cell-based; details: read-out: GI
EKVX = test: Antiproliferative activity against human EKVX cells assessed as cell growth at 10 uM incubated for 48 hrs by sulforhodamine B assay relative to control; format: functional; details: read-out: Activity
T47D = test: Antiproliferative activity against human T47D cells assessed as cell growth at 10 uM incubated for 48 hrs by sulforhodamine B assay relative to control; format: functional; details: read-out: Activity
IGROV-1 = test: Antiproliferative activity against human IGROV-1 cells assessed as cell growth at 10 uM incubated for 48 hrs by sulforhodamine B assay relative to control; format: functional; details: read-out: Activity
RPMI-8226 = test: Antiproliferative activity against human RPMI-8226 cells assessed as cell growth at 10 uM incubated for 48 hrs by sulforhodamine B assay relative to control; format: functional; details: read-out: Activity

Compound `CC(=O)c1c(C)[nH]c2c1c(-c1ccc3c(c1)OCO3)nc1ccccc12` has a growth at 10 µM (MCF7 [1]) of 41.5%, an inhibition of growth at 10 µM (MCF7 [2]) of 32% and an inhibition of growth at 10 µM (MCF7 [3]) of 25%. For the same compound, the Activity (MCF7 [4]) was “Active”, the growth at 10 µM (SK-OV-3) was 88.8% and the inhibition of growth at 25 µM (MCF7 [5]) was 41%. The growth at 10 µM (SR) was 31.6%, the Activity (MCF7 [6]) was “Active” and the inhibition of growth at 10 µM (MDA-MB-231 [7]) was 28%. The growth at 10 µM (ACHN) was 92.4%, the growth at 10 µM (K562) was 76.8% and the growth at 10 µM (PC-3) was 75.8%. The growth at 10 µM (NCI-H226) was 65.6%, the growth at 10 µM (MDA-MB-435) was 42.1% and the growth at 10 µM (SF-295) was 91.1%. For the same compound, the Activity (MCF7 [8]) was “Dose-Dependent Effect”, the inhibition of growth at 25 µM (MDA-MB-231 [9]) was 48% and the growth at 10 µM (CAKI-1) was 58.9%. The Activity (MCF7 [10]) was “Active”, the growth at 10 µM (HOP-62) was 67.5% and the inhibition (MCF7 [11]) was “Dose-Dependent Effect”. The growth at 10 µM (UACC-257) was 73.9%, the growth at 10 µM (KM12) was 74.6% and the growth at 10 µM (LOX IMVI) was 86.5%. For the same compound, the inhibition of growth at 50 µM (MDA-MB-231 [12]) was 60%, the inhibition at 72 h, 10 µM [13] was 11% and the growth at 10 µM (NCI-H522) was 101%. It also gave an inhibition of growth at 10 µM (MDA-MB-231 [14]) of 37%, an inhibition of growth at 50 µM (MCF7 [15]) of 70% and a growth at 10 µM (A549) of 81.7%. The inhibition at 50 µM [16] was 63%, the inhibition of growth at 25 µM (MDA-MB-231 [17]) was 35% and the growth at 10 µM (UO-31) was 26.4%. The growth at 10 µM (MOLT-4) was 107%, the inhibition of growth at 50 µM (MCF7 [18]) was 54% and the Activity (MCF7 [19]) was “inactive”. For the same compound, the Activity (MCF7 [20]) was “Active”, the inhibition at 25 µM [21] was 42% and the inhibition of growth at 50 µM (MDA-MB-231 [22]) was 74%. For the same compound, the growth at 10 µM (MDA-MB-231 [23]) was 82.2%, the growth at 10 µM (SNB-75) was 46.5% and the growth at 10 µM (HCT-15) was 69.5%. For the same compound, the growth at 10 µM (HCT-116) was 84.3%, the Activity (MCF7 [24]) was “Active” and the growth at 10 µM (MDA-MB-468) was 59.5%. It also gave an inhibition of growth at 25 µM (MCF7 [25]) of 38%, an inhibition at 24 h, 10 µM [26] of 14% and a growth at 10 µM (EKVX) of 88.3%. For the same compound, the growth at 10 µM (T47D) was 70.3%, the growth at 10 µM (IGROV-1) was 60.1% and the growth at 10 µM (RPMI-8226) was 90.3%.
